The source of these data is patent publication US20250255293A1, “TISSUE DECONTAMINATION AND PRESERVATION SYSTEM” (priority 2024, published 2025).

Where “and” joins values, the source holds several entries; their conditions need not be identical. Equal entries are not always repeated. Where two headings read alike, the source gives them in different places.

In one series the test system is human chondrocyte. As to conditions: cited from earlier work.
Series [1] concerns canines with grade 3 open femoral bicondylar fracture. Nature of the series: Functional outcomes after reimplantation of decontaminated fracture fragment (Example 4). It counts as in vivo, canine. The method, then:
(§1) A grade 3 open femoral bicondylar fracture was created in 3 canines. A lateral parapatellar approach was used, the fragment was cultured and retrieved. The fragment was irrigated, treated with 0.002% chlorhexidine for 20 minutes, irrigated, and stored in MOPS® for 7 days, after which the fragment was reimplanted, and both condyles were repaired with 3.5 mm cannulated lag screws. After 3 months, quantitative bacterial cultures (CFU/g; Table 2) and functional outcomes (Table 3) were measured.

For series [2], the system named is contaminated human femoral osteochondral allografts. The settings on record: 0.002% chlorhexidine gluconate, pulse lavage (1 L) / immediate intraoperative treatment, cited from earlier work.
The test system of series [3] is contaminated osteochondral tissues. As to conditions: 10% povidone-iodine or 0.4% chlorhexidine, 20-minute immersion; cited from earlier work.
In series [4] the test system is bacteria (quantitative bacterial cultures). Nature of the series: Quantitative bacterial cultures, in vivo reimplantation of decontaminated fracture fragment (Example 4). As to conditions: individual dogs. Also on record: species or system canine. As to the method:
as §1

Series [5] deals with chondrocytes of osteoarticular fracture fragments. Nature of the series: Viable chondrocyte density, live-dead calcein AM / ethidium homodimer assay (Example 3). The settings on record: for Viable Chondrocyte Density, mean (SD): 20 min immersion (10% povidone-iodine or 0.002% chlorhexidine). It counts as cell-based, canine. The text has this: Purpose-bred hounds (n=16) were humanely euthanized, immediately after which an open articular fracture in both elbows (n=32) was created using a captive bolt pistol. Each dog was positioned in sternal recumbency with one forelimb extended and secured in a custom made positioning apparatus. Fur was not clipped and no aseptic preparation or techniques were implemented. A captive bolt stunner pistol with a 4.75-inch penetrating pin and 1.25 grain cartridge was centered on the cranial (anterior) aspect of the distal humerus, immediately proximal to the joint. With firm pressure against the secured elbow, the pistol was discharged, and the procedure was repeated for the contralateral elbow. Soft tissues were removed aseptically and the distal humerus (n=32), proximal radius (n=32), and trochlea (n=32) were osteotomized and processed under operating room conditions in 1 of 3 ways: 1) Betadine ([…]): 0.9% saline irrigation (1 L), 10% povidone-iodine solution immersion (20 min), saline irrigation; 2) Chlorhexidine (n=42): saline irrigation, 0.002% chlorhexidine solution immersion (20 min), saline irrigation; 3) Control (n=12): untreated. Each osteoarticular fragment was placed in 200 ml of MOPS® solution (500 ml DMEM, 5 ml ITS (insulin (10 mg/L), transferrin 55 mg/L), selenium (6.7 μg/L)), 5 ml total penicillin (100 U/ml), streptomycin (100 μg/ml), amphotericin B (2.5 μg/ml), 5 ml L-glutamine (2 mM), 5 ml non-essential amino acids (0.1 mM), 1 ml ascorbic acid (50 ng/ml), and 5.46 ml dexamethasone (0.1 μM)) in a sterile container and stored under standard room temperature and humidity conditions for 7 (n=46) or 14 (n=48) days. At each time point, viable chondrocyte density (VCD) and quantitative microbial culture assessments were assayed, yielding a count of colony forming units (CFU) per specimen.
Viable chondrocyte density (VCD) was evaluated using a live-dead calcein AM (live stain) and ethidium homodimer (dead stain) assay, as previously described (Cook, et al., Am. J. Sports Med. 44:1260-1268, 2016). A minimum of two images from each osteochondral fragment were assessed via fluorescent microscopy. The VCD was determined by counting the number of viable cells in each image and dividing this by the area of the tissue in the image (#of viable cells/area of cartilage tissue mm^2). This methodology was aimed at providing an objective and quantifiable assessment of cell viability post-treatment.
Univariate comparison of VCD and CFU were performed via Kruskal-Wallis and Chi-squared test. Multivariate linear regression was used, controlling for osteotomy site and storage time, to determine the correlation between processing method and VCD or CFU. Data manipulation and statistical analysis were performed using R software.

The mark [6] stands for this setting: 3 months after reimplantation of fragment treated with 0.002% chlorhexidine and stored in MOPS 7 days.

In the case of `[H]/N=C(\N/C(=N/[H])NCCCCCCNC(=N)NC(=N)Nc1ccc(Cl)cc1)Nc1ccc(Cl)cc1` [Chlorhexidine, chlorhexidine gluconate], the “chondrocyte viability after treatment” value in the series with human chondrocyte (0.002% chlorhexidine gluconate, 7 days in tissue culture, listed as Chlorhexidine Gluconate) is “preserving chondrocyte viability for up to 7 days”; in the series with human chondrocyte (0.002% chlorhexidine gluconate, 7 days in tissue culture, listed as chlorhexidine gluconate) it was “maintain chondrocyte viability at day-0 level for 7 days”; with human chondrocyte (higher concentrations of CHG than 0.002%), “significant chondrocyte viability loss within 24 hours”. Moreover, the “Function (VAS) Post” value in series [1] (setting [6]) is 9 and 8.8 and 9.3. In addition, in series [1] (setting [6]), the “ROM Post” value is 101 degrees and 97 degrees and 104 degrees. The “Pain (VAS) Post” value in series [1] (Post, individual dogs) was 0. Besides, the “Pain (VAS) Pre” value in series [1] (Pre, individual dogs) is 1.2 and 1.9 and 0.6. In addition, in series [1] (baseline, individual dogs), the “Function (VAS) Pre” value turned out to be 10. Further, in series [1] (baseline, individual dogs), the “ROM Pre” value is 108 degrees and 107 degrees and 109 degrees. Besides, the “decontamination of contaminated osteochondral allografts” value in series [2] (listed as Chlorhexidine Gluconate) was “effective decontamination”; in series [2] (listed as chlorhexidine gluconate), “effective for complete decontamination”. Besides, in series [3], the “decontamination of contaminated osteochondral tissues” value is recorded as “effective at fully decontaminating”. Also, in series [4] (3 months after reimplantation), the “quantitative bacterial culture, Endpoint, Fracture Fragment” value is on record as 0 CFU/g. The “quantitative bacterial culture, Endpoint, Synovium” value in series [4] (3 months after reimplantation) is reported as 0 CFU/g. In addition, the “quantitative bacterial culture, Reimplantation, MOPS Media” value in series [4] (after 0.002% chlorhexidine 20 min and 7 days storage in MOPS) turned out to be 0 CFU/g. Moreover, the “quantitative bacterial culture, Initial Trauma, Fracture Fragment” value in series [4] (baseline, before 0.002% chlorhexidine treatment) is 355 CFU/g and 0 CFU/g and 41 CFU/g. In addition, in series [4] (baseline, before treatment), the “quantitative bacterial culture, Initial Trauma, Synovium” value is 0 CFU/g (2×) and 119 CFU/g. The “mean VCD” value is 772 in series [5] (at 7 days) and 710 in series [5] (at 14 days). In addition, in series [5] (multivariate linear regression, controlling for storage timing and osteotomy site), the “increase of VCD relative to control treatment” value is recorded as 377 VCD. Further, the “maintenance of chondrocyte viability (in words)” value in series [5] (saline irrigation, 0.002% chlorhexidine immersion, room temperature storage in MOPS) was “maintaining chondrocyte viability for up to 14 days”. The “Viable Chondrocyte Density, mean (SD)” value in series [5] (storage time 7 days in MOPS at room temperature) is reported as 772.3 (257.0) mm^−2; in series [5] (storage time 14 days in MOPS at room temperature) it was 709.5 (338.0) mm^−2.
